The values that follow come from US8192761B2, “Granular preparation containing biguanide compound” (Dainippon Sumitomo Pharma Co., Ltd., priority 2005, dated 2012).

The data set in a line: Stability testing: appearance (solidification) of fine granules after storage in tightly sealed glass containers. Particulars: additive added to metformin hydrochloride fine granules, 40° C. In kind it is physicochemical. On the procedure: Using fine granules obtained in Examples 1-14 and Comparative Examples 1-16, a stability testing was performed. Fine granules (5 g) were each placed in glass containers, which were tightly sealed and stored at 40° C. for 1 week.
Appearance of metformin hydrochloride fine granules after storage at 40° C. for 1 week
On to `O=P([O-])([O-])O.[Ca+2]` [anhydrous dibasic calcium phosphate], for which the solidification-preventive effect entry is on record as “did not show a solidification-preventive effect”.
The result for `O=C([O-])[O-].[Ca+2]` [calcium carbonate] reads “did not show a solidification-preventive effect”.
On to `[Ca+2].[Cl-].[Cl-]` [calcium chloride], for which the solidification-preventive effect result is “a solidification-preventive effect was observed”.
The result for `OC[C@H]1O[C@@H](O[C@H]2[C@H](O)[C@@H](O)C(O)O[C@@H]2CO)[C@H](O)[C@@H](O)[C@H]1O` (stereo partly drawn) [lactose] reads “did not show a solidification-preventive effect”.
Turning to calcium stearate, the solidification-preventive effect result is given as “did not show a solidification-preventive effect”.
magnesium stearate: the solidification-preventive effect result is given as “a solidification-preventive effect was observed”.
